Laboratory results as given in US7354912B2, “Unique compositions of zwitterionic phospholipids and bisphosphonates and use of the compositions as bisphosphate delivery systems with reduced GI toxicity” (Board of Reagents, University of Texas System, priority 2000, dated 2008).
Marks after values point to notes of the source that are not given here.

Columns and labels:
[1] = system: mucosae of the gastric body and antrum; settings: increasing doses over a 4 week period in rats; macroscopic and histological; cited from earlier work
gastric mucosa [2] = assay: histological studies of gastric mucosa; settings: rat, in vivo
gastric mucosa [3] = assay: acute bisphosphonate/indomethacin gastric injury model of Blank et al. (gastric lesion score, gastric bleeding); type: in vivo, rat; settings: for order of gastrotoxicity (FIG. 4) / Gastric Lesion Score (lesioned area, mm^2): rats; for order of gastrotoxicity (FIG. 4): comparison of three bisphosphonates; for Gastric Lesion Score (lesioned area, mm^2): Indo 40 mg/kg, pamidronate 300 mg/kg, PC-pamidronate 1:1 weight ratio, n = 4-5 rats/group
Description: (§1) The experiments investigated the effects of different bisphosphonates on the surface hydrophobicity and phospholipid concentration of the antral mucosa, using the animal model of Blank et. al. (Blank M A, Ems B L, Gibson G W, Myers W R, Berman S K, Phipps R J, Smith P N, Dig Dis Sci, 42, 281-288 (1997)), and compared the effects of these surface changes to the gastric toxicity of these drugs.
Looking at FIG. 2, an antrum lesion score is plotted against time.
The model and the ability for phospholipids to inhibit bisphosphonate GI toxicity was investigated in pilot preclinical studies using the rodent model of Blank et. al. (Blank M A, Ems B L, Gibson G W, Myers W R, Berman S K, Phipps R J, Smith P N, Dig Dis Sci, 42, 281-288 (1997)), where the bisphosphonate test drug was administered simultaneously with indomethacin.
60 mg of Phospholipon 90G (90-93% pure PC) was dissolved in chloroform in a tube. […] The organic solvent was removed under nitrogen and resulting PC material was left under vacuum overnight to form a PC film in the tube. […] The solution was then added to the dried PC film in the tube. The mixture was sonicated in a both type sonicator at room temperature for 5 min., prior to administration to fasted rats.
20 mg of dipalmitoyl PC (DPPC) and Phospholipon 90 G were dissolved in chloroform in separate tubes, and dried as described in Example 1.
60 mg and 240 mg of Phospholipon 90G were dissolved in chloroform and dried as described in Example 1 in separate tubes.

gastric mucosa [4] = assay: surface hydrophobicity and phospholipid (PC) concentration of the antral/gastric mucosa
Description: as §1

[5] = system: aspirin-induced gastric erosions; settings: 10 mg and 40 mg doses; cited from earlier work
[6] = system: experimentally induced gastric ulcers; settings: rats; cited from earlier work
[7] = healthy subjects, up to 2 weeks, 40 mg or 10 mg; cited from earlier work
gastric mucosa [8] = settings: rats, intragastric high doses, with indomethacin; cited from earlier work

With `O=P(O)(O)C(O)(Cc1cccnc1)P(=O)(O)O` [risedronate, I-hydroxy-2-(3-pyridyl) ethylidene-1,(3-pyridyl) ethylidene-1,1-bisphosphonic acid] as the compound, how does the “injurious effect on mucosae of the gastric body and antrum” value (from here on “injurious effect on mucosae”) [1] read?
The value was “dose-dependent injurious effect”.

What about the “surface injury to the gastric mucosa (histology)” value (gastric mucosa [2]) of the same compound?
Its value is “induced some surface injury”.

And the “order of gastrotoxicity (FIG. 4)” value (gastric mucosa [3])?
The value was “pamidronate>>alendronate>risedronate”.

What about the “order of ability to attenuate the stomach's hydrophobic phospholipid barrier property (FIG. 5)” value (gastric mucosa [4]; same order as gastrotoxicity maintained) of the same compound?
The value was “pamidronate>>alendronate>risedronate”.

Which “rate of healing of aspirin-induced gastric erosions” value [5] does the source give for `NCCCC(O)(P(=O)(O)O)P(=O)(O)O` [alendronate, 4-amino-1-hydroxybutylidene-1,1-bisphosphonic acid] here?
Its value is “significantly retarded”.

And the “healing of experimentally induced gastric ulcers” value [6]?
Its value is “significantly delayed the healing”.

And the “volunteers who developed one or more gastric ulcers” value [7]?
Its value is 10-20%.

What about the “volunteers with observable gastric erosions” value [7] of the same compound?
The value was 40-60%.

What about the “injurious effect on mucosae” value [1] of the same compound?
Its value is “dose-dependent injurious effect”.

And the “order of ability to attenuate the stomach's hydrophobic phospholipid barrier property (FIG. 5)” value (gastric mucosa [4]; rat, in vivo)?
The value was “pamidronate>>alendronate>risedronate”.

With `CC(O)(P(=O)(O)O)P(=O)(O)O` [etidronate, 1-hydroxyethylidene-1,1-bisphosphonic acid] as the compound, how does the “injurious effect on mucosae” value [1] read?
Its value is “dose-dependent injurious effect”.

For `COc1ccc2c(c1)c(CC(=O)O)c(C)n2C(=O)c1ccc(Cl)cc1` [Indomethacin], which “Gastric Lesion Score (lesioned area, mm^2)” value (gastric mucosa [3]) is on record?
Its value is 0 ± 0 mm^2.

Which results are given for `NCCC(O)(P(=O)(O)O)P(=O)(O)O` [Pamidronate, 3-amino-1-hydroxypropylidene-1,1-bisphosphonic acid]?
irritation of the gastric mucosa (comparison of bisphosphonates) (gastric mucosa [8]): more irritating; gastric lesions (antrum lesion score, FIG. 2) (gastric mucosa [3]; rat stomach, over a 4 hr period, in combination with indomethacin): induced lesions in both the antrum and body of the rat stomach; order of gastrotoxicity (FIG. 4) (gastric mucosa [3]): pamidronate>>alendronate>risedronate; Gastric Lesion Score (lesioned area, mm^2) (gastric mucosa [3]): 62 ± 11* mm^2
